Measured values published in patent US8658661B2, “Oxadiazole inhibitors of leukotriene production” (Boehringer Ingelheim International GmbH, priority 2010, dated 2014).

Columns and labels:
[1] = biological target: T1, recombinant human FLAP protein (Homo sapiens, UniProt P20292); assay: FLAP binding assay (SPA, displacement of [125I]L-691,831); settings: membranes of sf9 cells expressing recombinant human FLAP; [125I]L-691,831 probe; read-out: FLAP binding IC50
T1 construct: made in house; host or cells: Sf9 insect cells (100,000×g membrane pellet used)
T1 sequence (P20292 1-161): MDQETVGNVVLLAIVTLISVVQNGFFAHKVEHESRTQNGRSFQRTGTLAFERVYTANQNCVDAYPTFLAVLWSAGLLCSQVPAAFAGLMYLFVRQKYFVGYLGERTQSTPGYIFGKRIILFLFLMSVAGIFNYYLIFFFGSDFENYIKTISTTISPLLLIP
Procedure: Assessment of Biological Properties 1. Binding Assay
Compounds are assessed for the ability to bind to FLAP in a binding assay that measures compound-specific displacement of an iodinated (^125I) FLAP inhibitor via a Scintillation Proximity Assay format (adapted from S. Charleson et al., Mol. Pharmacol., 1992, 41, 873-879).
Cell pellets produced from sf9 insect cells expressing recombinant human FLAP protein are resuspended in buffer A [15 mM Tris-HCl (pH 7.5), 2 mM MgCl2, 0.3 mM EDTA, 1 mM PMSF]. The cells are lysed with a Dounce homogenizer and the material is centrifuged at 10,000×g for 10 minutes. The supernatant is then collected and centrifuged at 100,000×g for 60 minutes. To prepare membrane protein for an assay, an aliquot of the 100,000×g pellet is resuspended in 1 ml of buffer A, Dounce homogenized, and finally subjected to polytron mixing (30 seconds). Membrane protein (25 μl, 5 μg) is mixed with WGA SPA beads (Amersham) and stirred for 1 h. […] (final concentrations: beads, 200 μg/well; protein, 5 μg/well; [^125I] probe, 0 08 nM/well (17 nCi/well). The plates are shaken for 2 h before reading on a Microbeta plate reader. Non-specific binding is determined by the addition of 10 μM cold L-691,831 compound.

[2] = test system: synthesis of LTB4 in human whole blood; assay: Human whole blood assay (inhibition of LTB4 synthesis, calcimycin stimulated); format: cell-based; settings: heparinized human whole blood, calcimycin 20 μM, plasma LTB4
Procedure: Compounds are additionally tested in a human whole blood assay to determine their ability to inhibit the synthesis of LTB4 in a cellular system. Compounds are combined with heparinized human whole blood and incubated for 15 minutes at 37° C. Calcimycin (20 μM final, prepared in phosphate-buffered saline, pH 7.4) is then added and the mixture is incubated for another 30 minutes at 37° C. The samples are centrifuged for 5 min at low speed (1500×g) and the plasma layer is removed. Plasma LTB4 concentrations are then measured using an antibody-based homogenous time-resolved fluorescence method (CisBio, Bedford, Mass.).

SMILES | IC50 [1] [µM] | IC50 [2] [µM]
COc1ccncc1-c1nc(C(C)(c2ccc(-c3cnc(N)nc3)cc2)C(C)C)no1 (stereo not drawn) [Example 11, 5-(4-{2-[5-(4-methoxypyridin-3-yl)-1,2,4-oxadiazol-3-yl]-3-methylbutan-2-yl}phenyl)pyrimidin-2-amine] | 0.0019 | 0.089
CC(C)C(C)(c1ccc(-c2cnc(N)nc2)cc1)c1noc(-c2ccc[nH]c2=O)n1 (stereo not drawn) [Example 12, 3-(3-{2-[4-(2-aminopyrimidin-5-yl)phenyl]-3-methylbutan-2-yl}-1,2,4-oxadiazol-5-yl)pyridin-2(1H)-one] | 0.0033 | 0.29
COc1cncc(-c2nc(C(C)(c3ccc(-c4cnc(N)nc4)cc3)C(C)C)no2)c1 (stereo not drawn) [Example 13, 5-(4-{2-[5-(5-methoxypyridin-3-yl)-1,2,4-oxadiazol-3-yl]-3-methylbutan-2-yl}phenyl)pyrimidin-2-amine] | 0.0036 | 0.46
CC(C)C(C)(c1ccc(-c2cnc(N)nc2)cc1)c1noc(-c2cnn(C)c2)n1 (stereo not drawn) [Example 15, 5-(4-{3-methyl-2-[5-(1-methyl-1H-pyrazol-4-yl)-1,2,4-oxadiazol-3-yl]butan-2-yl}1phenyl)pyrimidin-2-amine] | 0.002 | 0.046
CC(C)C(C)(c1ccc(-c2cnc(N)nc2)cc1)c1noc(-c2ccnn2C)n1 (stereo not drawn) [Example 18, 5-(4-{3-methyl-2-[5-(1-methyl-1H-pyrazol-5-yl)-1,2,4-oxadiazol-3-yl]butan-2-yl}phenyl)pyrimidin-2-amine] | 0.0033 | 0.32
CC(C)C(C)(c1ccc(-c2cnc(N)nc2)cc1)c1noc(-c2ccn[nH]2)n1 (stereo not drawn) [Example 19, 5-(4-{3-methyl-2-[5-(1H-pyrazol-5-yl)-1,2,4-oxadiazol-3-yl]butan-2-yl}phenyl)pyrimidin-2-amine] | 0.0058 | 0.26
CC(C)C(C)(c1ccc(-c2cnc(N)nc2)cc1)c1noc(-c2ncc[nH]2)n1 (stereo not drawn) [Example 20, 5-(4-{2-[5-(1H-imidazol-2-yl)-1,2,4-oxadiazol-3-yl]-3-methylbutan-2-yl}phenyl)pyrimidin-2-amine] | 0.01 | 3.2
CC(C)[C@](C)(c1ccc(-c2cnc(N)nc2)cc1)c1noc(-c2ccn[nH]2)n1 [Example 23, 5-(4-{(2R)-3-methyl-2-[5-(1H-pyrazol-5-yl)-1,2,4-oxadiazol-3-yl]butan-2-yl}phenyl)pyrimidin-2-amine] | 0.0069 | 0.17
CC(C)[C@@](C)(c1ccc(-c2cnc(N)nc2)cc1)c1noc(-c2ccn[nH]2)n1 [Example 24, 5-(4-{(2S)-3-methyl-2-[5-(1H-pyrazol-5-yl)-1,2,4-oxadiazol-3-yl]butan-2-yl}phenyl)pyrimidin-2-amine] | 0.019 | 0.41
CC(C)[C@](C)(c1ccc(-c2cnc(N)nc2)cc1)c1noc(-c2ccnn2C)n1 [Example 31, 5-(4-{(2R)-3-methyl-2-[5-(1-methyl-1H-pyrazol-5-yl)-1,2,4-oxadiazol-3-yl]butan-2-yl}phenyl)pyrimidin-2-amine] | 0.0016 | 0.2
CC(C)[C@@](C)(c1ccc(-c2cnc(N)nc2)cc1)c1noc(-c2ccnn2C)n1 [Example 32, 5-(4-{(2S)-3-methyl-2-[5-(1-methyl-1H-pyrazol-5-yl)-1,2,4-oxadiazol-3-yl]butan-2-yl}phenyl)pyrimidin-2-amine] | 0.018 | 2.5
Cc1ccc(-c2nc(C(C)(C)c3ccc(-c4cnc(N)nc4)cc3)no2)cn1 [Example 37, 5-(4-{2-[5-(6-methylpyridin-3-yl)-1,2,4-oxadiazol-3-yl]propan-2-yl}phenyl)pyrimidin-2-amine] | 0.0074 | 0.25

Results, then the compound that gave them:

IC50 [1] [µM] | IC50 [2] [µM] | SMILES
0.0046 | 0.14 | CC(C)C(C)(c1ccc(-c2cnc(N)nc2)cc1)c1noc(-c2ccn(C)n2)n1 (stereo not drawn) [Example 14, 5-(4-{3-methyl-2-[5-(1-methyl-1H-pyrazol-3-yl)-1,2,4-oxadiazol-3-yl]butan-2-yl}phenyl)pyrimidin-2-amine]
0.0025 | 0.11 | CC(C)[C@](C)(c1ccc(-c2cnc(N)nc2)cc1)c1noc(-c2ccn(C)n2)n1 [Example 16, 5-(4-{(2R)-3-methyl-2-[5-(1-methyl-1H-pyrazol-3-yl)-1,2,4-oxadiazol-3-yl]butan-2-yl}phenyl)pyrimidin-2-amine]
0.024 | 0.51 | CC(C)[C@@](C)(c1ccc(-c2cnc(N)nc2)cc1)c1noc(-c2ccn(C)n2)n1 [Example 17, 5-(4-{(2S)-3-methyl-2-[5-(1-methyl-1H-pyrazol-3-yl)-1,2,4-oxadiazol-3-yl]butan-2-yl}phenyl)pyrimidin-2-amine]
0.0055 | 0.087 | CC(c1ccc(-c2cnc(N)nc2)cc1)(c1noc(-c2cn[nH]c2)n1)C1CC1 (stereo not drawn) [Example 21, 5-(4-{1-cyclopropyl-1-[5-(1H-pyrazol-4-yl)-1,2,4-oxadiazol-3-yl]ethyl}phenyl)pyrimidin-2-amine]
0.0042 | 0.046 | Cn1cc(-c2nc(C(C)(c3ccc(-c4cnc(N)nc4)cc3)C3CC3)no2)cn1 (stereo not drawn) [Example 22, 5-(4-{1-cyclopropyl-1-[5-(1-methyl-1H-pyrazol-4-yl)-1,2,4-oxadiazol-3-yl]ethyl}phenyl)pyrimidin-2-amine]
0.006 | 0.17 | CC(c1ccc(-c2cnc(N)nc2)cc1)(c1noc(-c2cc[nH]n2)n1)C1CC1 (stereo not drawn) [Example 25, 5-(4-{1-cyclopropyl-1-[5-(1H-pyrazol-3-yl)-1,2,4-oxadiazol-3-yl]ethyl}phenyl)pyrimidin-2-amine]
0.0091 | 0.16 | Cn1ccc(-c2nc(C(C)(c3ccc(-c4cnc(N)nc4)cc3)C3CC3)no2)n1 (stereo not drawn) [Example 26, 5-(4-{1-cyclopropyl-1-[5-(1-methyl-1H-pyrazol-3-yl)-1,2,4-oxadiazol-3-yl]ethyl}phenyl)pyrimidin-2-amine]
0.012 | 0.33 | Cn1nccc1-c1nc(C(C)(c2ccc(-c3cnc(N)nc3)cc2)C2CC2)no1 (stereo not drawn) [Example 27, 5-(4-{1-cyclopropyl-1-[5-(1-methyl-1H-pyrazol-5-yl)-1,2,4-oxadiazol-3-yl]ethyl}phenyl)pyrimidin-2-amine]
0.026 | 0.32 | Cn1cnc(-c2nc(C(C)(c3ccc(-c4cnc(N)nc4)cc3)C3CC3)no2)c1 (stereo not drawn) [Example 28, 5-(4-{1-cyclopropyl-1-[5-(1-methyl-1H-imidazol-4-yl)-1,2,4-oxadiazol-3-yl]ethyl}phenyl)pyrimidin-2-amine]
0.0053 | 0.19 | Cc1ccc(-c2nc(C(C)(c3ccc(-c4cnc(N)nc4)cc3)C3CC3)no2)cn1 (stereo not drawn) [Example 29, 5-(4-{1-cyclopropyl-1-[5-(6-methylpyridin-3-yl)-1,2,4-oxadiazol-3-yl]ethyl}phenyl)pyrimidin-2-amine]
0.005 | 0.06 | COCCn1cc(-c2nc(C(C)(c3ccc(-c4cnc(N)nc4)cc3)C3CC3)no2)cn1 (stereo not drawn) [Example 30, 5-[4-(1-cyclopropyl-1-{5-[1-(2-methoxyethyl)-1H-pyrazol-4-yl]-1,2,4-oxadiazol-3-yl}ethyl)phenyl]pyrimidin-2-amine]
0.0066 | 0.21 | Cn1cc(-c2nc(C(C)(c3ccc(-c4cnc(N)nc4)cc3)C3CCC3)no2)cn1 (stereo not drawn) [Example 33, 5-(4-{1-cyclobutyl-1-[5-(1-methyl-1H-pyrazol-4-yl)-1,2,4-oxadiazol-3-yl]ethyl}phenyl)pyrimidin-2-amine]
0.0037 | 0.16 | CC(c1ccc(-c2cnc(N)nc2)cc1)(c1noc(-c2cn[nH]c2)n1)C1CCC1 (stereo not drawn) [Example 34, 5-(4-{1-cyclobutyl-1-[5-(1H-pyrazol-4-yl)-1,2,4-oxadiazol-3-yl]ethyl}phenyl)pyrimidin-2-amine]
0.0032 | 0.36 | CC(C)(O)CNc1cnc(-c2nc(C(C)(c3ccc(-c4cnc(N)nc4)cc3)C3CCC3)no2)cn1 (stereo not drawn) [Example 35, 1-{[5-(3-{1-[4-(2-aminopyrimidin-5-yl)phenyl]-1-cyclobutylethyl}-1,2,4-oxadiazol-5-yl)pyrazin-2-yl]amino}-2-methylpropan-2-ol]
0.0032 | 0.17 | COCCNc1cnc(-c2nc(C(C)(c3ccc(-c4cnc(N)nc4)cc3)C3CCC3)no2)cn1 (stereo not drawn) [Example 36, 5-{4-[1-cyclobutyl-1-(5-{5-[(2-methoxyethyl)amino]pyrazin-2-yl}-1,2,4-oxadiazol-3-yl)ethyl]phenyl}pyrimidin-2-amine]
